Assay results from ChEMBL document CHEMBL1132013, “Synthesis, computer modeling and biological evaluation of novel protein kinase C agonists based on a 7-membered lactam moiety” (Bioorg Med Chem Lett, 1999).

Legend:
[1] = molecular target: T1, Protein kinase C alpha type (Homo sapiens, UniProt P17252); test: (§1) Displacement of [3H]PDBu from human recombinant Protein kinase C alpha
[2] = test system: HL-60; test: Inhibition of HL-60 monocyte cell proliferation; Range = 1-8 uM; assay type: functional; conditions: Homo sapiens, read-out: ED50 (the source's name)
[3] = molecular target: T1, Protein kinase C alpha type; test: as §1; remark: listed apart in the source
[4] = test system: HL-60; test: Inhibition of HL-60 monocyte cell proliferation; Range = 0.3-0.7 uM; assay type: functional; conditions: Homo sapiens, read-out: ED50 (the source's name)
[5] = test system: HL-60; test: Inhibition of HL-60 monocyte cell proliferation; assay type: functional; conditions: Homo sapiens, read-out: ED50 (the source's name)

Compound	Ki [1]	EC50 [2]	Ki [3]	EC50 [4]	EC50 [5]
CC(C)CCCC(C)[C@H]1CC[C@H]2[C@@H]3CC[C@H]4CC(=O)N[C@H](CO)C[C@]4(C)[C@H]3CC[C@]12C (some centres undefined)	> 500 nM	8000 nM	–	–	–
C[C@@]12CCC[C@H]1[C@@H]1CC[C@H]3CC(=O)N[C@H](CO)C[C@]3(C)[C@H]1CC2	> 500 nM	8000 nM	–	–	–
CC(C)CCCC(C)[C@H]1CC[C@H]2[C@@H]3CC[C@H]4CC(=O)N[C@@H](CO)C[C@]4(C)[C@H]3CC[C@]12C (some centres undefined)	> 500 nM	8000 nM	–	–	–
CCCCC1(CCCC)CC[C@H]2CC(=O)N[C@H](CO)C[C@]2(C)C1	60 nM	–	80 nM	700 nM	–
CCCCC1(CCCC)CC[C@H]2CC(=O)N[C@@H](CO)C[C@]2(C)C1	190 nM	–	–	700 nM	–
CCCC[C@@H]1C(=O)N[C@H](CO)C[C@]2(C)CC(CCCC)(CCCC)CC[C@@H]12	17 nM	–	–	–	150 nM
CCCCCCCC[C@@H]1C(=O)N[C@H](CO)C[C@]2(C)CC(CCCC)(CCCC)CC[C@@H]12	11 nM	–	–	–	150 nM
CCCCC1(CCCC)CC[C@H]2[C@H](C)C(=O)N[C@H](CO)C[C@]2(C)C1	21 nM	–	–	–	150 nM
C[C@@]12CCC[C@H]1[C@@H]1CC[C@H]3CC(=O)N[C@@H](CO)C[C@]3(C)[C@H]1CC2	> 500 nM	8000 nM	–	–	–
